Results taken from patent publication US20080287511A1, “Anthelmintic Imidazol-Thiazole Derivates” (priority 2005, published 2008).

Key:
[1] = system: PolyRes strain of Haemonchus contortus (resistant against levamisole, mebendazole, ivermectin and closantel); test: Efficacy study of anthelmintics in in vivo H. contortus/jirds model; set-up: species or system Haemonchus contortus in jirds (Meriones unguiculatus); settings: jirds, oral; for Med. W.b. (median worm burden): treated day 11, necropsy day 14; for % Efficacy: reduction of mean worm count vs control group; for anthelmintic efficacy compared with art known compounds (A) and (B): multi-resistant strain of Haemonchus contortus, comparison in words
Experimental: The anthelmintic efficacy of the compounds of the present invention was evaluated in an in vivo model using unmedicated jirds (Meriones unguiculatus), inoculated three times with approximately 300 exsheated infective larvae of Haemonchus contortus (multiresistant strain), treated orally with a test compound 11 days after their first infection with H. contortus larvae, and necropsied on day 14 to count the number of recovered H. contortus worms. The anthelmintic efficacy of the art known compounds (A) and (B) was also evaluated using the same model.
Female CRW jirds aged between 28 and 35 days and weighing 30-35 g (Charles River, Sulzfeld, Germany) were used. Three jirds each were assigned randomly upon arrival to translucent polysulfone individually ventilated cages (48×37.5×21 cm) containing wood shavings. Commercial rodent chow and water were given ad libitum. Following a four-day acclimation period, the jirds were artificially infected.
A PolyRes strain of Haemonchus contortus (resistant against levamisole, mebendazole, ivermectin and closantel) was used. This strain has been maintained in artificially infected male donor lambs. Individual feces containing Haemonchus eggs were collected in fecal bags. The fecal pellets were broken, mixed with charcoal, moistened and put in an incubator for embryonation at 28° C. and 95% relative humidity. Seven days later this mixture was placed in Baermann funnels and third stage ensheathed larvae were collected after 12 hours. These larvae were rinsed with water for cleaning and disinfected with a 2% formalin solution. Such larvae can be used immediately for artificial infection or can be stored in the fridge at about 8° C. for a maximum duration of 6 months. Infective larvae (<6 months old) were exsheathed by rinsing with a 3.3 vol % commercial sodium hypochlorite solution during 10 minutes, filtered through a Buchner funnel, rinsed with water, concentrated in a Baermann funnel, and collected after 2 hours. Exsheathed larvae prepared in this manner can be used for subsequent infection of jirds or laid in a supply for extended periods by cooling in the gas over liquid nitrogen during 1 hour and storing in liquid nitrogen at −196° C.
All jirds were inoculated orally with approximately 300 exsheathed infective larvae of H. contortus per dose on three consecutive days. Inoculations were administered using a blunted 18 G dosing needle fitted to a 1 ml syringe.
Eleven days after their first infection jirds were treated with test compounds, suspended or dissolved in 0.4 ml DMSO, and the dose to be tested was administered in a volume of 0.1 ml/50 g bodyweight via a blunted 18 G dosing needle fitted to a 1 ml syringe. Control animals, included in each experiment, remained untreated. Levamisole hydrochloride, mebendazole, ivermectin and closantel were used in different dosage titration experiments to validate the model.
All jirds were starved 20 hours before necropsy and killed on day 14 past first infection by CO2 inhalation. For worm recovery their stomachs were removed, opened longitudinally, and incubated in a beaker with 20 ml digestion fluid (10 g pepsin+30 ml concentrated hydrochloric acid) at 37° C. for 3 hours. Following digestion, the stomach content was passed through a tea-strainer, the passage fluid was catched in a sieve (32 μm) and the worms were recovered with tap water. The beakers were stored in the fridge for subsequent counting.
The content of each beaker was mixed, poured over in a 6-well plate in 6 aliquots, and the worms were counted under an inverted microscope.

| melting point | SMILES | Med. W.b. (median worm burden) ([1]; dose 2.5 mpk) | % Efficacy ([1]; dose 2.5 mpk) | Med. W.b. (median worm burden) ([1]; dose 5 mpk) | % Efficacy ([1]; dose 5 mpk) | Med. W.b. (median worm burden) ([1]; dose 10 mpk) | % Efficacy ([1]; dose 10 mpk) | anthelmintic efficacy compared with art known compounds (A) and (B) [1] |
| --- | --- | --- | --- | --- | --- | --- | --- | --- |
| 42 to 57 °C | O=C(Nc1cccc([C@H]2CN3CCSC3=N2)c1)[C@H]1CCCO1 [Co. No. 1, (2R)-tetrahydro-furan-2-carboxylic acid (6S)-[3-(2,3,5,6-tetrahydro-imidazo[2,1-b]thiazol-6-yl)-phenyl]-amide] | 36.0 | 65.9% | 6.0 | 79.3% | 0.0 | 100.0% | better demonstrated anthelmintic efficacy than the art known compounds (A) and (B) |
| – | O=C(Nc1cccc([C@H]2CN3CCSC3=N2)c1)C1CCCO1 (stereo partly drawn) [Co. No. 4] | – | – | 5.0 | 68.8% | 3.0 | 85.0% | better demonstrated anthelmintic efficacy than the art known compounds (A) and (B) |
| – | O=C(Nc1cccc([C@H]2CN3CCSC3=N2)c1)c1ccco1 [Co. No. A, furan-2-carboxylic acid [3-(2,3,5,6-tetrahydro-imidazo[2,1-b]thiazol-6-yl)-phenyl]-amide, reference compound] | – | – | 11.0 | 35.3% | 7.0 | 65.0% | – |
| – | c1cc(NCC2CCCO2)cc([C@H]2CN3CCSC3=N2)c1 (stereo partly drawn) [Co. No. B, (tetrahydrofuran-2-ylmethyl)-[3-(2,3,5,6-tetrahydro-imidazo[2,1-b]thiazol-6-yl)-phenyl]-amine, reference compound] | – | – | 10.0 | 55.6% | 14.0 | 60.6% | – |
